Test results reported in patent publication US20200397913A1, “AXL-SPECIFIC ANTIBODY-DRUG CONJUGATES FOR CANCER TREATMENT” (GENMAB A/S, priority 2015, published 2020).

Columns and labels:
SKMEL147 tumors = assay: SKMEL147 melanoma xenograft model; assay type: in vivo, NMRI nude mice
M016 cells = assay: Patient-derived low passage melanoma culture viability assay; assay type: cell-based, human; conditions: ADC 8 days
LU2511 tumors = assay: Erlotinib-resistant NSCLC PDX model LU2511; assay type: in vivo, BALB/c nude mice; conditions: LU2511, ADC 4 mg/kg i.v. day 0 and 7, alone or with erlotinib 50 mg/kg daily
M082 cells = assay: Patient-derived low passage melanoma culture viability assay; assay type: cell-based, human; conditions: ADC 8 days

Substance: IgG1-AXL-107-vcMMAE: IgG1-AXL-107 conjugated at cysteines to vcMMAE (mc-vc-PAB linker, MMAE)
- anti-tumor activity (SKMEL147 tumors; 2 mg/kg i.v. on day 12 and day 19 after tumor cell injection): induced tumor growth inhibition
- anti-tumor activity (SKMEL147 tumors; 4 mg/kg i.v. on day 12 and day 19 after tumor cell injection): induced strong tumor regression
- anti-tumor activity (SKMEL147 tumors; 4 mg/kg i.v. on day 12 and day 19 after tumor cell injection, listed as HuMax-AXL-ADC): profound anti-tumor effect
- anti-tumor activity upon retreatment after regrowth (SKMEL147 tumors; single dose of 4 mg/kg on day 55, four mice): tumor regression in all four mice
- sensitivity of the culture to the substance (M016 cells): sensitive
- sensitivity of the culture to the substance (M016 cells; listed as HuMax-AXL-ADC): Sensitive
- anti-tumor activity (LU2511 tumors): induced tumor growth inhibition
- sensitivity of the culture to the substance (M082 cells): did not show a different response from that seen with the IgG1-b12-vcMMAE control treatment
- sensitivity of the culture to the substance (M082 cells; listed as HuMax-AXL-ADC): Insensitive
